According to PubChem BioAssay AID252 (DTP/NCI, 2004):
Values joined by “and” are separate entries in the source; they are usually repeats but may differ in a detail not shown here. Equal values may be shown once. Toxic doses and inconclusive results are not listed.

System: BDF1 mice, intracerebral L1210 leukemia, survival T/C
Assay: NCI In Vivo Anticancer Drug Screen. Data for tumor model L1210 Leukemia (intracerebral) in B6D2F1 (BDF1) mice
Details: higher = longer survival
In short: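 Transplantable tumour-bearing mice, compound-treated vs vehicle controls; read-out survival, reported as T/C ratio.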

`CN(C)/N=N/c1nc[nH]c1C(N)=O` was tested, and the T/C (endpoint: mean survival time, dose: 53.0 mg/kg/injection, schedule: Q01DX Z (ip), vehicle: carboxymethylcellulose (CMC)) was 106 % of control, the T/C (endpoint: mean survival time, dose: 80.0 mg/kg/injection, schedule: Q01DX Z (ip), vehicle: carboxymethylcellulose (CMC)) was 104 % of control and the T/C (endpoint: mean survival time, dose: 120.0 mg/kg/injection, schedule: Q01DX Z (ip), vehicle: carboxymethylcellulose (CMC)) was 112 % of control. For the same compound, the T/C (endpoint: mean survival time, dose: 180.0 mg/kg/injection, schedule: Q01DX Z (ip), vehicle: carboxymethylcellulose (CMC)) was 93 % of control, the T/C (endpoint: mean survival time, dose: 317.0 mg/kg/injection, schedule: Q01DX001 (ip), vehicle: carboxymethylcellulose (CMC)) was 101 % of control and the T/C (endpoint: mean survival time, dose: 482.0 mg/kg/injection, schedule: Q01DX001 (ip), vehicle: carboxymethylcellulose (CMC)) was 87 % of control. For the same compound, the T/C (endpoint: median survival time, dose: 10.0 mg/kg/injection, schedule: Q01DX009 (ip), vehicle: carboxymethylcellulose (CMC)) was 111 % of control, the T/C (endpoint: median survival time, dose: 20.0 mg/kg/injection, schedule: Q01DX009 (ip), vehicle: carboxymethylcellulose (CMC)) was 111 % of control and the T/C (endpoint: median survival time, dose: 40.0 mg/kg/injection, schedule: Q01DX009 (ip), vehicle: carboxymethylcellulose (CMC)) was 114 % of control. For the same compound, the T/C (endpoint: median survival time, dose: 80.0 mg/kg/injection, schedule: Q01DX009 (ip), vehicle: carboxymethylcellulose (CMC)) was 117 % of control, the T/C (endpoint: median survival time, dose: 160.0 mg/kg/injection, schedule: Q01DX009 (ip), vehicle: carboxymethylcellulose (CMC)) was 118 % of control and the T/C (endpoint: median survival time, dose: 200.0 mg/kg/injection, schedule: Q01DX009 (ip), vehicle: carboxymethylcellulose (CMC)) was 103 % of control. The T/C (endpoint: median survival time, dose: 300.0 mg/kg/injection, schedule: Q01DX009 (ip), vehicle: carboxymethylcellulose (CMC)) was 94 % of control, the T/C (endpoint: median survival time, dose: 320.0 mg/kg/injection, schedule: Q01DX009 (ip), vehicle: carboxymethylcellulose (CMC)) was 108 % of control and the T/C (endpoint: median survival time, dose: 400.0 mg/kg/injection, schedule: Q01DX009 (ip), vehicle: carboxymethylcellulose (CMC)) was 111 % of control. The T/C (endpoint: median survival time, dose: 600.0 mg/kg/injection, schedule: Q01DX009 (ip), vehicle: carboxymethylcellulose (CMC)) was 94 % of control.
`CN(N=O)C(=O)Nc1ccc(C(=O)O)cc1` was tested, and the T/C (endpoint: mean survival time, dose: 60.0 mg/kg/injection, schedule: Q01DX001 (ip), vehicle: carboxymethylcellulose (CMC)) was 110 % of control and the T/C (endpoint: mean survival time, dose: 120.0 mg/kg/injection, schedule: Q01DX001 (ip), vehicle: carboxymethylcellulose (CMC)) was 114 % of control.
In the case of `O=NN(CCF)C(=O)Nc1ccccc1`, the T/C (endpoint: mean survival time, dose: 8.0 mg/kg/injection, schedule: Q01DX001 (ip), vehicle: other) is reported as 120 % of control.
For `COc1cc(NS(C)(=O)=O)ccc1Nc1c2ccc([N+](=O)[O-])cc2nc2c(C)cccc12`, the T/C (endpoint: mean survival time, dose: 2.5 mg/kg/injection, schedule: Q01DX009 (ip), vehicle: saline) was 93 % of control, the T/C (endpoint: mean survival time, dose: 2.5 mg/kg/injection, schedule: Q01DX009 (sc), vehicle: saline) was 93 % of control and the T/C (endpoint: mean survival time, dose: 5.0 mg/kg/injection, schedule: Q01DX009 (ip), vehicle: saline) was 103 % of control. For the same compound, the T/C (endpoint: mean survival time, dose: 5.0 mg/kg/injection, schedule: Q01DX009 (sc), vehicle: saline) was 96 % of control and the T/C (endpoint: mean survival time, dose: 10.0 mg/kg/injection, schedule: Q01DX009 (sc), vehicle: saline) was 93 % of control.
`CS(C)=O` was tested, and the T/C (endpoint: mean survival time, dose: 0.5 mg/kg/injection, schedule: Q#C X009 (adlb), vehicle: water) was 102 % of control, the T/C (endpoint: mean survival time, dose: 1.0 mg/kg/injection, schedule: Q#C X009 (adlb), vehicle: water) was 102 % of control and the T/C (endpoint: mean survival time, dose: 2.0 mg/kg/injection, schedule: Q#C X009 (adlb), vehicle: water) was 101 % of control. The T/C (endpoint: mean survival time, dose: 4.0 mg/kg/injection, schedule: Q#C X009 (adlb), vehicle: water) was 101 % of control, the T/C (endpoint: mean survival time, dose: 8.0 mg/kg/injection, schedule: Q#C X009 (adlb), vehicle: water) was 98 % of control and the T/C (endpoint: mean survival time, dose: 10.0 mg/kg/injection, schedule: Q01DX001 (ip), vehicle: DMSO) was 110 % of control. For the same compound, the T/C (endpoint: mean survival time, dose: 25.0 mg/kg/injection, schedule: Q01DX001 (ip), vehicle: DMSO) was 101 % of control, the T/C (endpoint: mean survival time, dose: 35.0 mg/kg/injection, schedule: Q01DX001 (ip), vehicle: DMSO) was 101 % of control and the T/C (endpoint: mean survival time, dose: 50.0 mg/kg/injection, schedule: Q01DX001 (ip), vehicle: DMSO) was 101 % of control. The T/C (endpoint: mean survival time, dose: 0.5 % drug in feed or water or air, schedule: Q#C X009 (oral), vehicle: other) was 102 % of control, the T/C (endpoint: mean survival time, dose: 1.0 % drug in feed or water or air, schedule: Q#C X009 (oral), vehicle: other) was 102 % of control and the T/C (endpoint: mean survival time, dose: 1.0 grams/kg/injection, schedule: Q01DX001 (ip), vehicle: Klucel (hydroxypropylcellulose) (HPC)) was 110 % of control. For the same compound, the T/C (endpoint: mean survival time, dose: 2.0 % drug in feed or water or air, schedule: Q#C X009 (oral), vehicle: other) was 101 % of control, the T/C (endpoint: mean survival time, dose: 2.1 grams/kg/injection, schedule: Q01DX001 (ip), vehicle: Klucel (hydroxypropylcellulose) (HPC)) was 101 % of control and the T/C (endpoint: mean survival time, dose: 4.0 % drug in feed or water or air, schedule: Q#C X009 (oral), vehicle: other) was 101 % of control. The T/C (endpoint: mean survival time, dose: 8.0 % drug in feed or water or air, schedule: Q#C X009 (oral), vehicle: other) was 98 % of control, the T/C (endpoint: median survival time, dose: 1.0 mg/kg/injection, schedule: Q#C X009 (oral), vehicle: water) was 103 % of control and 118 % of control and the T/C (endpoint: median survival time, dose: 2.0 mg/kg/injection, schedule: Q#C X009 (oral), vehicle: water) was 101 % of control (2×) and 105 % of control. The T/C (endpoint: median survival time, dose: 4.0 mg/kg/injection, schedule: Q#C X009 (oral), vehicle: water) was 103 % of control and 107 % of control and 98 % of control and the T/C (endpoint: median survival time, dose: 8.0 mg/kg/injection, schedule: Q#C X009 (oral), vehicle: water) was 101 % of control and 83 % of control and 97 % of control.
`O=NN(CCF)C(=O)NCCF` was tested, and the T/C (endpoint: mean survival time, dose: 3.5 mg/kg/injection, schedule: Q01DX001 (ip), vehicle: saline) was 160 % of control, the T/C (endpoint: mean survival time, dose: 5.0 mg/kg/injection, schedule: Q01DX001 (ip), vehicle: saline) was 208 % of control and the T/C (endpoint: mean survival time, dose: 7.0 mg/kg/injection, schedule: Q01DX001 (ip), vehicle: saline) was 254 % of control. For the same compound, the T/C (endpoint: mean survival time, dose: 8.0 mg/kg/injection, schedule: Q01DX001 (ip), vehicle: saline) was 284 % of control and the T/C (endpoint: mean survival time, dose: 14.0 mg/kg/injection, schedule: Q01DX001 (ip), vehicle: saline) was 303 % of control.
With `CSc1ncnc2c1ncn2C1OC(CO)C(O)C1O` (configuration not stated) the T/C (endpoint: mean survival time, dose: 25.0 mg/kg/injection, schedule: Q01DX Z (ip), vehicle: saline) was 113 % of control and the T/C (endpoint: mean survival time, dose: 50.0 mg/kg/injection, schedule: Q01DX Z (ip), vehicle: saline) was 92 % of control.
With `O=C1C(Cl)=C(N2CC2)C(=O)C(Cl)=C1N1CC1` the T/C (endpoint: mean survival time, dose: 0.62 mg/kg/injection, schedule: Q01DX009 (ip), vehicle: Klucel (hydroxypropylcellulose) (HPC)) was 98 % of control, the T/C (endpoint: mean survival time, dose: 0.62 mg/kg/injection, schedule: Q01DX009 (ip), vehicle: saline) was 96 % of control and the T/C (endpoint: mean survival time, dose: 1.25 mg/kg/injection, schedule: Q01DX009 (ip), vehicle: Klucel (hydroxypropylcellulose) (HPC)) was 98 % of control. The T/C (endpoint: mean survival time, dose: 1.25 mg/kg/injection, schedule: Q01DX009 (ip), vehicle: saline) was 120 % of control and 96 % of control, the T/C (endpoint: mean survival time, dose: 2.5 mg/kg/injection, schedule: Q01DX009 (ip), vehicle: Klucel (hydroxypropylcellulose) (HPC)) was 98 % of control and the T/C (endpoint: mean survival time, dose: 5.0 mg/kg/injection, schedule: Q01DX009 (ip), vehicle: Klucel (hydroxypropylcellulose) (HPC)) was 96 % of control. The T/C (endpoint: mean survival time, dose: 10.0 mg/kg/injection, schedule: Q01DX009 (ip), vehicle: Klucel (hydroxypropylcellulose) (HPC)) was 96 % of control, the T/C (endpoint: mean survival time, dose: 20.0 mg/kg/injection, schedule: Q01DX009 (ip), vehicle: Klucel (hydroxypropylcellulose) (HPC)) was 90 % of control and the T/C (endpoint: mean survival time, dose: 20.0 mg/kg/injection, schedule: Q01DX009 (ip), vehicle: saline) was 87 % of control.
`CC(=O)c1ccc(NC(=O)N(CCCl)N=O)cc1` was tested, and the T/C (endpoint: mean survival time, dose: 37.5 mg/kg/injection, schedule: Q01DX001 (ip), vehicle: carboxymethylcellulose (CMC)) was 117 % of control, the T/C (endpoint: mean survival time, dose: 50.0 mg/kg/injection, schedule: Q01DX001 (ip), vehicle: carboxymethylcellulose (CMC)) was 118 % of control and the T/C (endpoint: mean survival time, dose: 75.0 mg/kg/injection, schedule: Q01DX001 (ip), vehicle: carboxymethylcellulose (CMC)) was 121 % of control.
In the case of `C[n+]1ccc(Nc2ccc(NC(=O)c3ccc(Nc4cc[n+](C)c5ccc(N)cc45)cc3N)cc2)cc1`, the T/C (endpoint: mean survival time, dose: 1.0 mg/kg/injection, schedule: Q01DX009 (ip), vehicle: water) is reported as 93 % of control, the T/C (endpoint: mean survival time, dose: 2.0 mg/kg/injection, schedule: Q01DX009 (ip), vehicle: water) is reported as 97 % of control and the T/C (endpoint: mean survival time, dose: 4.0 mg/kg/injection, schedule: Q01DX009 (ip), vehicle: water) is reported as 104 % of control. The T/C (endpoint: mean survival time, dose: 8.0 mg/kg/injection, schedule: Q01DX009 (ip), vehicle: water) was 112 % of control.
For `CC[n+]1c(-c2ccccc2)c2cc(N)ccc2c2ccc(N)cc21`, the T/C (endpoint: mean survival time, dose: 1.25 mg/kg/injection, schedule: Q01DX Z (ip), vehicle: saline) was 104 % of control, the T/C (endpoint: mean survival time, dose: 2.5 mg/kg/injection, schedule: Q01DX Z (ip), vehicle: saline) was 100 % of control and the T/C (endpoint: mean survival time, dose: 5.0 mg/kg/injection, schedule: Q01DX Z (ip), vehicle: saline) was 101 % of control. For the same compound, the T/C (endpoint: mean survival time, dose: 7.5 mg/kg/injection, schedule: Q01DX Z (ip), vehicle: saline) was 100 % of control and the T/C (endpoint: mean survival time, dose: 15.0 mg/kg/injection, schedule: Q01DX Z (ip), vehicle: saline) was 86 % of control.
